The supplement of paper PMC10307832

Key:
Experiment in all cases: relative viability (nuclei count vs DMSO), 5 days (fraction); higher = more cells survive
Temozolomide + OSI-027 = compound: Cn1nnc2c(C(N)=O)ncn2c1=O [Temozolomide] + COc1cccc2cc(-c3nc([C@H]4CC[C@H](C(=O)O)CC4)n4ncnc(N)c34)[nH]c12 [OSI-027] (partner 0.5 µM)
Outline: (§1)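 Each reported value is a median over duplicate plates. It expresses relative viability: treated-well nuclei count divided by vehicle-well nuclei count. Lung cancer cell lines in 1536-well plates were dosed by pin tool a day after seeding, alone with one drug or with a fixed anchor-drug dose plus five library-drug doses (not always all listed) in √10 steps, and nuclei were counted after 5 days.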

Temozolomide + Lapatinib = compound: Cn1nnc2c(C(N)=O)ncn2c1=O [Temozolomide] + CS(=O)(=O)CCNCc1ccc(-c2ccc3ncnc(Nc4ccc(OCc5cccc(F)c5)c(Cl)c4)c3c2)o1 [Lapatinib] (partner 2 µM)
Outline: as §1

[1] = compound: Cn1nnc2c(C(N)=O)ncn2c1=O [Temozolomide] + Nc1nc2[nH]cc(CCc3ccc(C(=O)N[C@@H](CCC(=O)O)C(=O)O)cc3)c2c(=O)[nH]1 [Pemetrexed] (partner 0.2 µM)
Outline: as §1

AZD5582 + Foretinib = compound: C[C@@H](C(=O)N[C@@H](C1CCCCC1)C(=O)N2CCC[C@H]2C(=O)N[C@@H]3[C@@H](CC4=CC=CC=C34)OCC#CC#CCO[C@@H]5CC6=CC=CC=C6[C@@H]5NC(=O)[C@@H]7CCCN7C(=O)[C@H](C8CCCCC8)NC(=O)[C@H](C)NC)NC [AZD5582] + COc1cc2c(Oc3ccc(NC(=O)C4(C(=O)Nc5ccc(F)cc5)CC4)cc3F)ccnc2cc1OCCCN1CCOCC1 [Foretinib] (partner 0.25 µM)
Outline: as §1

Cell Line | relative viability (Temozolomide + OSI-027; first compound 0.2 µM) | relative viability (Temozolomide + OSI-027; first compound 0.6325 µM) | relative viability (Temozolomide + OSI-027; first compound 2 µM) | relative viability (Temozolomide + OSI-027; first compound 6.325 µM) | relative viability (Temozolomide + OSI-027; first compound 20 µM) | relative viability (Temozolomide + Lapatinib; first compound 0.2 µM) | relative viability (Temozolomide + Lapatinib; first compound 0.6325 µM) | relative viability (Temozolomide + Lapatinib; first compound 2 µM) | relative viability (Temozolomide + Lapatinib; first compound 6.325 µM) | relative viability (Temozolomide + Lapatinib; first compound 20 µM) | relative viability ([1]; first compound 0.2 µM) | relative viability ([1]; first compound 0.6325 µM) | relative viability ([1]; first compound 2 µM) | relative viability ([1]; first compound 6.325 µM) | relative viability ([1]; first compound 20 µM) | relative viability (AZD5582 + Foretinib; first compound 0.001581 µM) | relative viability (AZD5582 + Foretinib; first compound 0.005 µM) | relative viability (AZD5582 + Foretinib; first compound 0.05 µM) | relative viability (AZD5582 + Foretinib; first compound 0.01581 µM)
HCC-366 | 0.865 | 0.856 | 1.03 | 0.879 | 0.921 | 1.18 | 1 | 1.1 | 1.08 | 1.07 | 0.143 | 0.17 | 0.188 | 0.165 | 0.155 | 0.947 | 0.978 | 1 | 
HCC-827 | 0.45 | 0.756 | 0.8 | 0.73 | 0.133 | 0.207 | 0.238 | 0.191 | 0.191 | 0.195 | 0.176 | 0.273 | 0.249 | 0.264 | 0.16 | 0.936 | 1.06 | 0.999 | 1.04
HOP-62 | 1.06 | 0.854 | 0.846 | 0.773 | 0.908 | 1.29 | 1.02 | 1.05 | 1.05 | 0.75 | 0.302 | 0.264 | 0.287 | 0.314 | 0.294 | 1.01 | 1.11 | 1.05 | 1.06
IA-LM |  |  |  |  |  | 0.913 | 0.976 | 0.935 | 0.758 | 0.716 |  |  |  |  |  | 0.96 | 0.938 | 0.994 | 1.21
LC-2-ad | 0.782 | 0.917 | 0.926 | 0.825 | 0.737 | 0.961 | 1.02 | 0.962 | 0.964 | 0.895 | 0.281 | 0.296 | 0.279 | 0.291 | 0.287 | 0.933 | 1.16 | 0.923 | 0.829
LCLC-97TM1 | 0.554 | 0.525 | 0.571 | 0.486 | 0.524 | 0.929 | 1.28 | 0.655 | 0.611 | 1.21 | 0.195 | 0.198 | 0.177 | 0.156 | 0.209 | 0.913 | 0.94 | 0.958 | 0.908
LCLC-103H | 0.454 | 0.416 | 0.481 | 0.448 | 0.485 |  |  |  |  |  | 0.467 | 0.461 | 0.519 | 0.465 | 0.515 | 0.699 | 0.725 | 0.581 | 0.681
LK-2 | 0.2 | 0.218 | 0.214 | 0.168 | 0.196 | 1.01 | 1.04 | 0.796 | 0.611 | 0.392 | 0.284 | 0.288 | 0.299 | 0.264 | 0.277 | 0.88 | 1.12 | 1.25 | 1.49
LOU-NH91 | 0.494 | 0.729 | 0.781 | 0.756 | 0.493 | 0.747 | 0.782 | 0.791 | 0.732 | 0.763 | 0.389 | 0.366 | 0.371 | 0.395 | 0.458 | 0.858 | 0.861 | 0.949 | 0.934
